The record followed here is patent US20050096360A1, “Inhibitors of semicarbazide-sensitive amine oxidase (SSAO) and VAP-1 mediated adhesion useful for treatment of diseases” (priority 2003, published 2005).

Counter-ions that a name gives are not always drawn. Like-named read-outs stand apart in the source and are kept apart here.

Data set [1] concerns the target T1, SSAO (bovine plasma amine oxidase, PAO) (Bos taurus, UniProt Q29437).
T1 construct: Bovine plasma amine oxidase (PAO) was purchased from Worthington Biochemical; purchased Worthington Biochemical (Lakewood, N.J.)
T1 sequence (Q29437 17-762): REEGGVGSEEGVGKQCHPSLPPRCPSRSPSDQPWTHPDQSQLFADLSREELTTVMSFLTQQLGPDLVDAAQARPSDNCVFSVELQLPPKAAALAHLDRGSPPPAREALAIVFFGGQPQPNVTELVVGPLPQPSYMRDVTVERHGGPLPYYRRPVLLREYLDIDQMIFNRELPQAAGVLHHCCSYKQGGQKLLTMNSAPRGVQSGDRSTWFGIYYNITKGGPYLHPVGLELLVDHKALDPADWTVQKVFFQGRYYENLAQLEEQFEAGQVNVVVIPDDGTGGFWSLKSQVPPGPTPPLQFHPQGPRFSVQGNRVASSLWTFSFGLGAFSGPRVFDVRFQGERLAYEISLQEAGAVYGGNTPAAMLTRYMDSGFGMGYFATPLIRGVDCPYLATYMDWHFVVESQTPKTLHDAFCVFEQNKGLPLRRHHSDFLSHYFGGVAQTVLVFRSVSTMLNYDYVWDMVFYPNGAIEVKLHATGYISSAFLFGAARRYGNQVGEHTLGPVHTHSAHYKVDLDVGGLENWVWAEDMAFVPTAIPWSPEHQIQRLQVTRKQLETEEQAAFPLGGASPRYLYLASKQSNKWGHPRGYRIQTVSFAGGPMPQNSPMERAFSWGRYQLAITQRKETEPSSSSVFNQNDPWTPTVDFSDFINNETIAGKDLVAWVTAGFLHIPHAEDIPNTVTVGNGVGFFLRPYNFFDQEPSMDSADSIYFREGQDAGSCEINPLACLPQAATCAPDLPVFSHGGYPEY
Put plainly: In vitro inhibition of SSAO activity, coupled colorimetric method. It is filed as biochemical. As for the experimental part:
SSAO activity was measured using the coupled colorimetric method essentially as described for monoamine oxidase and related enzymes (Holt A. et al. (1997) Anal. Biochem. 244:384). Bovine plasma amine oxidase (PAO) was purchased from Worthington Biochemical (Lakewood, N.J.) and used as a source of SSAO for activity measurements. The SSAO assay was performed in 96 well microtitre plates as follows. A pre-determined amount of inhibitor diluted in 0.2 M potassium phosphate buffer, pH 7.6, was added to each well, if required. The amount of inhibitor varied in each assay but was generally at a final concentration of between 10 nM and 10 μM. Controls lacked inhibitor. In order to study the effects of potential inhibitors 50 μl of inhibitor solution were preincubated for 30 min at 37° C. with 0.4 mU of PAO in an a total volume of 130 μl of 0.2 M potassium phosphate buffer pH 7.6. Assays were then started by addition of 20 μl 10 mM benzylamine substrate and incubated for 20 min at 37° C. The following reagents were then added to a final reaction volume of 200 μl, 50 μl of freshly made chromogenic solution containing […] vanillic acid (Sigma # V-2250), […] 4-aminoantipyrine (Sigma # A-4328) and 12 U/ml horseradish peroxidase (Sigma # P-8250) in order to cause a change of 0.5 OD A490 per hour. This was within the linear response range of the assay. The plates were incubated for 1 hr at 37° C. and the increase in absorbance, reflecting SSAO activity, was measured at 490 nm using a microplate spectrophotometer (Power Wave 40, Bio-Tek Inst.). Inhibition was presented as percent inhibition compared to control after correcting for background absorbance and IC50 values calculated using GraphPad Prism software.

The target in the next data set is T2, recombinant human MAO-B (Homo sapiens, UniProt P27338).
T2 construct: purchased BD Biosciences (MA, USA)
T2 sequence (P27338 1-520): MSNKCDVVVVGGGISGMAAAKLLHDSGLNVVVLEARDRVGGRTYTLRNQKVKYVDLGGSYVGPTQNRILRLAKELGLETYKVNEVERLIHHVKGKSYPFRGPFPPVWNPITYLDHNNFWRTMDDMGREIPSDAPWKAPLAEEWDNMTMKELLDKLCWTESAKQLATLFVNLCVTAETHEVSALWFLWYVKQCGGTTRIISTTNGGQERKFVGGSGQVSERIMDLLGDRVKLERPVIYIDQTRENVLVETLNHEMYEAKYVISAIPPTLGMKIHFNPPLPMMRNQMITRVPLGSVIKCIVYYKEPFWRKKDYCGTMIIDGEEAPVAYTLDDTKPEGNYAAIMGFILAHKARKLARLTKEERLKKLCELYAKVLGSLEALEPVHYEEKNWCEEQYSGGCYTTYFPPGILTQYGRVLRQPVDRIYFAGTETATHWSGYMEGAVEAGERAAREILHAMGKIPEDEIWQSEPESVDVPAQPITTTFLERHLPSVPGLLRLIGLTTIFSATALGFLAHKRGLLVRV
Put plainly: Inhibition of MAO-B activity, colorimetric. It is filed as biochemical. The conditions noted are these: for Specificity for SSAO vs. MAO-B: ratio IC50 MAO-B to IC50 SSAO. As to the method: (§1) The specificity of the different SSAO inhibitors was tested by determining their ability to inhibit MAO-A and MAO-B activities in vitro. Recombinant human MAO-A and human MAO-B enzymes were obtained from BD Biosciences (MA, USA). […] A pre-determined amount of inhibitor diluted in 0.2 M potassium phosphate buffer, pH 7.6, was added to each well, if required. […] Controls lacked inhibitor. The following agents were then added to a final reaction volume of 200 μl in 0.2 M potassium phosphate buffer, pH 7.6: 0.04 mg/ml of MAO-A or 0.07 mg/ml MAO-B enzyme, 15 μl of 10 mM tyramine substrate (for MAO-A), or 15 μl 100 mM benzylamine substrate (for MAO-B), and 50 μl of freshly made chromogenic solution (as above). The plates were incubated for 60 min at 37° C. The increase in absorbance, reflecting MAO activity, was measured at 490 nm using microplate spectrophotometer (Power Wave 40, Bio-Tek Inst.). Inhibition was presented as percent inhibition compared to control after correcting for background absorbance and IC50 values calculated using GraphPad Prism software.

The target of a further data set is T3, recombinant human MAO-A (Homo sapiens, UniProt P21397).
T3 construct: purchased BD Biosciences (MA, USA)
T3 sequence (P21397 1-527): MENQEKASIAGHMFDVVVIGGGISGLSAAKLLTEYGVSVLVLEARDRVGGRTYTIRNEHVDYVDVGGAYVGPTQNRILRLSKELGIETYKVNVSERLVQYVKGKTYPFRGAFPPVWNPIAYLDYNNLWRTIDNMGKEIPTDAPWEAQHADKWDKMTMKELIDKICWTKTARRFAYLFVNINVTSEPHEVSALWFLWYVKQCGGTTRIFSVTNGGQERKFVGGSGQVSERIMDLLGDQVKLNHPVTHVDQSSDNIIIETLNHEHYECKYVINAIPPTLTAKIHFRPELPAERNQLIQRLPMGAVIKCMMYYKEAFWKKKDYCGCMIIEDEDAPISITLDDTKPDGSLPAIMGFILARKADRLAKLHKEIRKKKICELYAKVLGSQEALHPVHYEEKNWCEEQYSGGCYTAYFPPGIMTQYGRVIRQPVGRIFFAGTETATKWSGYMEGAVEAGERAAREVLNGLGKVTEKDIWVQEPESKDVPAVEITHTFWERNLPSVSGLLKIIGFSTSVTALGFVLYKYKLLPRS
As to the kind of experiment: Inhibition of MAO-A activity, colorimetric. It is filed as biochemical. As to conditions: for Specificity for SSAO vs. MAO-A: ratio IC50 MAO-A to IC50 SSAO. As for the experimental part:
as §1

Data set [2] deals with carrageenan-induced paw edema in Sprague Dawley rats. Put plainly: Carrageenan-induced rat paw edema. It is filed as in vivo. As to conditions: 3 mg/kg oral 1 hour prior to carrageenan. As for the experimental part:
Female Sprague Dawley rats were used and compounds of the invention were injected i.p. at 100 mg/kg 15 minutes prior to carrageenan exposure. The control group was injected with an equal volume of vehicle (PBS). Edema in the paws was induced as previously described by injecting 50 μl of a 0.5% solution of carrageenan (Type IV Lambda, Sigma) in saline with a 27-G needle s.c. in the right foot pat. (See Whiteley P. E. and Dalrymple S. A. (1998) Models of inflammation: carrageenan-induced paw edema in the rat, in Current Protocols in Pharmacology. Enna S J, Williams M, Ferkany J W, Kenaki T, Porsolt R E and Sullivan J P, eds., pp 5.4.1-5.4.3, John Wiley & Sons, New York) The size of the tested foot of each animal was measured volumetrically, before induction of edema, and at 60, 120, and 180 min after carrageenan induction.
Briefly, SSAO inhibitors (30 mg/kg), indomethacin (3 mg/kg) and PBS were administered orally to rats 1 hour after carrageenan injections.
To investigate further the role of SSAO inhibition in the inflammatory response, studies were carried out to assess the effect of SSAO inhibition on prostaglandin E2 (PGE2) levels. Animals were divided into four therapeutic groups of eight rats each. […] The fourth group received 3 mg/kg of dexamethasone, i.p. 1 hour before paw inflammation. Three hours after carrageenan injection, rats were asphyxiated with CO2 and their hind paws removed. The paws were lacerated with a scalpel, suspended off the bottom of a polypropylene 1.5 ml tube with a micropipette tip and centrifuged to express the inflammatory fluid. The volume collected from each paw was determined and the fluid was analyzed by ELISA for PGE2 production using a commercial kit (R&D Systems, Minneapolis, Minn.) according to the manufacturer's instructions. […] Data were analyzed with GraphPad Prism software (San Diego, Calif.) by Dunnett's test following analysis of variance.
Background: The carrageenan paw model is a standard test of acute inflammation.

The melting point is the temperature, or range, at which the solid turns liquid. `C=C(CON)c1ccccc1` (as salt: hydrochloride) [Example 1, O-(2-phenyl-allyl)-hydroxylamine Hydrochloride] came in with a melting point of 101 to 102 °C.
For orientation: IC50 means the midpoint of a concentration-inhibition curve. In the case of `C=C(CON)c1ccccc1` [Example 1, O-(2-phenyl-allyl)-hydroxylamine Hydrochloride], the midpoint of inhibition in data set [1], the IC50, lay at 0.029 µM. For the same molecule, at recombinant human MAO-B, the IC50 was 125 µM and the “Specificity for SSAO vs. MAO-B” value is 4,300. For the same molecule, on recombinant human MAO-A, the IC50 is 900 µM and the “Specificity for SSAO vs. MAO-A” value was 31,000.
In the case of `C=C(CNN)c1ccc(Cl)cc1.Cl` [Example 3, N-[2-(4′-chlorophenyl)-allyl]-hydrazine Hydrochloride], the IC50 is 0.05 µM in data set [1] (30 min preincubation, benzylamine substrate, read-out: SSAO Inhibitory Activity IC50); 24.5 µM on recombinant human MAO-B; 1 µM on recombinant human MAO-A (tyramine substrate, no pre-incubation, read-out: MAO-A Inhibitory Activity IC50). Besides, on recombinant human MAO-B, the “Specificity for SSAO vs. MAO-B” value is 490. The “Specificity for SSAO vs. MAO-A” value on recombinant human MAO-A came out at 20.
`C=C(CN(C)N)c1ccc(Cl)cc1.Cl` [Example 4, N-[2-(4′-chlor-phenyl)-allyl]-N-methyl-hydrazine Hydrochloride] displayed an IC50 in data set [1] of 0.65 µM. On recombinant human MAO-B, the IC50 was found to be 175 µM and the “Specificity for SSAO vs. MAO-B” value is 269. Besides, on recombinant human MAO-A, the IC50 came out at 260 µM and the “Specificity for SSAO vs. MAO-A” value is listed as 400.
The molecule `C=C(CN(N)CC)c1ccc(Cl)cc1.Cl` [Example 5, N-[2-(4′-Chlorophenyl)-allyl]-N-ethyl-hydrazine Hydrochloride] displayed a melting point of 150 to 151 °C. In data set [1], this molecule displayed an IC50 of 0.95 µM. In addition, at recombinant human MAO-B, the IC50 amounted to 155 µM and the “Specificity for SSAO vs. MAO-B” value is listed as 163. Besides, on recombinant human MAO-A, the IC50 was 690 µM and the “Specificity for SSAO vs. MAO-A” value is on record as 726.
For the molecule `C=C(CN(C)NC)c1ccc(Cl)cc1.Cl` [Example 6, N-[2-(4′-Chlorophenyl)-allyl]-N,N′-dimethylhydrazine Hydrochloride], the melting point lay in the range of 108 to 110 °C. Half-maximal inhibition in data set [1] (IC50) required 4.7 µM. Further, on recombinant human MAO-B, the IC50 turned out to be 2.8 µM and the “Specificity for SSAO vs. MAO-B” value is given as 0.60. Moreover, at recombinant human MAO-A, the IC50 came out at 300 µM and the “Specificity for SSAO vs. MAO-A” value turned out to be 64.
Molecule `C=C(CNNC)c1ccc(F)cc1.Cl` [Example 7, N-[2-(4′-fluorophenyl)-allyl]-N′-methylhydrazine Hydrochloride] had a melting point of 128 to 129 °C. This molecule yielded an IC50 in data set [1] of 2.61 µM. Also, at recombinant human MAO-B, the IC50 is 210 µM and the “Specificity for SSAO vs. MAO-B” value came to 80. For the same molecule, on recombinant human MAO-A, the IC50 worked out at 620 µM and the “Specificity for SSAO vs. MAO-A” value was 230.
For `C=C(C)CNN.Cl` [Example 9, (2-methyl-allyl)hydrazine Hydrochloride], the IC50 in data set [1] is 0.055 µM. Further, at recombinant human MAO-B, the IC50 was 20 µM and the “Specificity for SSAO vs. MAO-B” value was found to be 360. In addition, at recombinant human MAO-A, the IC50 worked out at 350 µM and the “Specificity for SSAO vs. MAO-A” value was 6,300.
The like results for `NOCC(O)c1ccccc1` (centres unmarked) [Example 11, 2-Aminooxyl-1-phenyl-ethanol Hydrochloride] were, in that order, 0.05 µM, 450 µM, 9000, 250 µM and 5000.
For `COc1ccc(C(O)CON)cc1OC` (centres unmarked) [Example 12, 2-Aminooxy-1-(3′,4′-dimethoxyphenyl)-ethanol Hydrochloride], the IC50 in data set [1] is 0.09 µM; at recombinant human MAO-B, 8200 µM; on recombinant human MAO-A, 3.6 µM. Further, on recombinant human MAO-B, the “Specificity for SSAO vs. MAO-B” value is recorded as 90,000. For the same molecule, the “Specificity for SSAO vs. MAO-A” value at recombinant human MAO-A is 400,000.
For `COc1ccc2c(c1)c(CC(=O)O)c(C)n2C(=O)c1ccc(Cl)cc1` [indomethacin, reference compound], in data set [2], the “PGE2 levels in paw exudate” value is listed as “greater impact”.
